Assay results from article PMC11053168, “Agonist-selective activation of individual G-proteins by muscarinic receptors” (Scientific Reports, 2024).

Legend:
M3 receptor = M3 receptor (Homo sapiens, UniProt P20309); assay: BRET real-time monitoring of G-protein activation via M3 in HEK293T/17 cells; type: cell-based; parameters: expressed in transfected cells; host or cells: HEK293T/17 cells, transient transfection; details: for Response at Gα15: saturating concentration; for Activation of Gαq/11 types: saturating concentration (100 μM; 1 mM for JB-12-2, JB-13-1)
Protocol: HE/K293T17 cells were obtained from The Global Bioresource Center ATCC (Manassas, VA, USA). Cells were grown in 100 mm petri dishes in Dulbecco’s modified Eagle’s medium (DMEM) supplemented with 10% fetal bovine serum (FBS), MEM non-essential amino acids, 1 mM sodium pyruvate, and antibiotics (100 units/ml penicillin and 100 μg/ml streptomycin) at 37 °C in a humidified incubator containing 5% CO2[41]. Transfection was performed according to Masuho et al.[41]. […] Gα14 subunit was co-transfected with Ric-8A chaperone (0.21 μg). Cells were cotransfected with a pcDNA3.1 construct encoding the catalytic subunit of pertussis toxin (PTX-S1) (0.21 μg) and constructs encoding Gα15, Gα14, Gα11, Gαq to ensure that the small BRET signals were not contaminated by the possible recruitment of endogenous Gαi/o proteins. The empty vector pcDNA3.1 was used to normalize the amount of DNA in each transfection.
To examine the activation of G-protein signalling in live cells, agonist-dependent cellular measurements of BRET between Venus-Gβ1γ2 and masGRK3ct-Nluc were performed as described by Masuho et al.[41]. […] Cells were harvested by centrifugation at 500×g for 5 min and were resuspended in BRET buffer. About 50,000 to 100,000 cells per well were distributed in 96-well flat-bottomed white microplates (Greiner Bio-One) in a volume of 25 µl. […] BRET measurements were made with a microplate reader (POLARstar Omega, BMG Labtech) equipped with two emission photomultiplier tubes, which enabled the detection of two emissions simultaneously with the highest possible resolution of 20 ms per data point. All measurements were performed at room temperature. […] The average baseline value (basal BRET ratio) recorded before stimulation of cells with an agonist was subtracted from the experimental BRET signal values to obtain the ΔBRET ratio.

M2 receptor = target: T1, M2 receptor (Homo sapiens, UniProt P08172); assay: BRET real-time monitoring of G-protein activation via M2 in HEK293T/17 cells; type: cell-based; parameters: expressed in transfected cells; host or cells: HEK293T/17 cells, transient transfection; details: for Activation of Gαi/o and Gα15 types: saturating concentration (100 μM; 1 mM for JB-12-2, JB-13-1)
T1 sequence (P08172 1-466): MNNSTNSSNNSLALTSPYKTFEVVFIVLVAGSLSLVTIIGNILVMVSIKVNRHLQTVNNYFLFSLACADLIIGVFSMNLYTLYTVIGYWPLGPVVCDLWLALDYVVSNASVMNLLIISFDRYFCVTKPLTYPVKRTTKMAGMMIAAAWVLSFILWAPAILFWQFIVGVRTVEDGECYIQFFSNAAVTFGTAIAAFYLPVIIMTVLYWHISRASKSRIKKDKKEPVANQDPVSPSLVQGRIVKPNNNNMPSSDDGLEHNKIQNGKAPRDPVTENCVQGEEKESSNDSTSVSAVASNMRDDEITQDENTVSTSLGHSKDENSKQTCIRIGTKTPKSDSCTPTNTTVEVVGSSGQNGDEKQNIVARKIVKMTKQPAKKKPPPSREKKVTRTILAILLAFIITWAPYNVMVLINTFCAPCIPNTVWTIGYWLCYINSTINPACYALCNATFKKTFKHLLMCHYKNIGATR
Protocol: HE/K293T17 cells were obtained from The Global Bioresource Center ATCC (Manassas, VA, USA). Cells were grown in 100 mm petri dishes in Dulbecco’s modified Eagle’s medium (DMEM) supplemented with 10% fetal bovine serum (FBS), MEM non-essential amino acids, 1 mM sodium pyruvate, and antibiotics (100 units/ml penicillin and 100 μg/ml streptomycin) at 37 °C in a humidified incubator containing 5% CO2[41]. Transfection was performed according to Masuho et al.[41]. Culture dishes (3.5 cm) were coated by incubation for 10 min at 37 °C with 1 ml of Matrigel solution [approximately 10 μg/ml of growth factor-reduced Matrigel (BD biosciences; LOT: 2278001) in culture medium]. For transfections, cells were seeded in the 3.5 cm dishes containing the Matrigel solution at a density of 1.7 × 10^6 cells/dish. Four hours later, the cells were transfected with the appropriate expression constructs (total of 5 μg DNA per dish) with the reagents PLUS (5 μl/dish) and Lipofectamine LTX (Thermo Fisher Scientific; LOT: 2640614) (6 μl/dish). The cells were transfected with the Venus 156-239-Gβ1 (0.21 μg), Venus 1–155-Gγ2 (0.21 μg), and masGRK3ct-Nluc (0.21 μg) constructs in addition to the different amounts of constructs for the M2 receptor and Gα of interest. Gα14 subunit was co-transfected with Ric-8A chaperone (0.21 μg). Cells were cotransfected with a pcDNA3.1 construct encoding the catalytic subunit of pertussis toxin (PTX-S1) (0.21 μg) and constructs encoding Gα15, Gα14, Gα11, Gαq to ensure that the small BRET signals were not contaminated by the possible recruitment of endogenous Gαi/o proteins. The empty vector pcDNA3.1 was used to normalize the amount of DNA in each transfection.
To examine the activation of G-protein signalling in live cells, agonist-dependent cellular measurements of BRET between Venus-Gβ1γ2 and masGRK3ct-Nluc were performed as described by Masuho et al.[41]. […]. Cells were harvested by centrifugation at 500×g for 5 min and were resuspended in BRET buffer. About 50,000 to 100,000 cells per well were distributed in 96-well flat-bottomed white microplates (Greiner Bio-One) in a volume of 25 µl. 25 µl of 2× luciferase substrate: Nano-Glo™ luciferase assay substrate (Promega; LOT: 0000527335) dissolved in 250 volumes of BRET buffer was added. BRET measurements were made with a microplate reader (POLARstar Omega, BMG Labtech) equipped with two emission photomultiplier tubes, which enabled the detection of two emissions simultaneously with the highest possible resolution of 20 ms per data point. All measurements were performed at room temperature. The BRET signal was determined by calculating the ratio of the light emitted by Venus-Gβ1γ2 (535 nm with a 30 nm band path width) to the light emitted by masGRK3ct-Nluc (475 nm with a 30 nm band path width). The average baseline value (basal BRET ratio) recorded before stimulation of cells with an agonist was subtracted from the experimental BRET signal values to obtain the ΔBRET ratio.
The ΔBRET ratio from real-time monitoring of G-protein activation was fitted using monophasic association according to Eq. 9.9 Y=Beq×(1-exp-Kobs×x where y is the ΔBRET ratio of the light emitted by Venus-Gβ1γ2 (535/30) to the light emitted by masGRK3ct-Nluc (475/30). Beq is Y-value at the equilibrium expressing the maximal amplitude of ΔBRET ratio, x is time and Kobs is the observed rate of Gα subunit activation.

Sequence of M3 receptor (P20309 whole entry): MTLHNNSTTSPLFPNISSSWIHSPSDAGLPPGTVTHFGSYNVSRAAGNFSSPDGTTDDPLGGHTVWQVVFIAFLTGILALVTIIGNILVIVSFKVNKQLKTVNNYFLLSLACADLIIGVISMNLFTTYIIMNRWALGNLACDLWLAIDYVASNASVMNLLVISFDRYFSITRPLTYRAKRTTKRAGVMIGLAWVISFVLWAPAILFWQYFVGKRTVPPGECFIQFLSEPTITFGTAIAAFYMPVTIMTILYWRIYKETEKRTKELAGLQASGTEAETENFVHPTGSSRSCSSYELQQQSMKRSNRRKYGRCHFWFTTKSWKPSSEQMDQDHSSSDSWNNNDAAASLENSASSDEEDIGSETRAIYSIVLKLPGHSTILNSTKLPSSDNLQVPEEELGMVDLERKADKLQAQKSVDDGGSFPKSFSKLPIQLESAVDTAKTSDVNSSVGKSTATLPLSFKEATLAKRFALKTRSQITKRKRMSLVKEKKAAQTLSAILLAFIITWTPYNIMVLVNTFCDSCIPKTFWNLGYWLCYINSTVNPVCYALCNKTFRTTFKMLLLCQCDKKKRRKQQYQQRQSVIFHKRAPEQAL

Row | SMILES | Response at Gα15 (M3 receptor) | Activation of Gαq/11 types (M3 receptor) | Activation magnitude at Gq, % of CBC (M3 receptor; 100 μM) | Activation of Gαi/o and Gα15 types (M2 receptor) | other results
1 | C[N+]1(Cc2cccs2)CCOCC1 [JB-12-2] | activated | activated all Gαq/11 types |  |  | Activation of GoA and GoB, % of CBC magnitude (M2 receptor; saturating concentration (JR-6 100 μM, JB-12-2 1 mM)): approximately 12%
2 | C[N+]1(Cc2ccc(Cl)s2)CC=CCC1 (centres unmarked) [PN-152, 1-[(5-chlorothiophen-2-yl)methyl]-1-methyl-1,2,3,6-tetrahydropyridin-1-ium] |  |  | 10% | did not detect | 
3 | c1csc(C[N+]23CCC(CC2)CC3)c1 [JB-8A] |  | did not activate any Gαq/11 type |  | did not detect | 
4 | C[N+]1(Cc2cccs2)CC=CCC1 (centres unmarked) [JR-6, 1-methyl-1-[(thiophen-2-yl)methyl]-1,2,3,6-tetra hydropyridin-1-ium] | no response |  | approximately 30% |  | Response at Gα14 (M3 receptor; 100 μM): weak response
5 | COC(=O)C1=CCCN(Cc2cccs2)C1 [JB-13-1] |  | did not activate any Gαq/11 type |  | activated only GαoA | 
6 | C[N+](C)(C)CCOC(N)=O [CBC, carbachol, reference compound] |  |  |  | activated all tested Gαi/o types and promiscuous Gα15 | Maximal amplitude at Gi1 as % of GoA (M2 receptor; CBC 100 μM): ~ 25%
